Consider 49 compounds from patent publication US20180298010A1, “PRMT5 INHIBITORS AND USES THEREOF” (Epizyme, Inc., priority 2012, published 2018).

For orientation: IC50 means the concentration at which inhibition is half-maximal.

The structures appear in SMILES notation.

T1 sequence (O14744 with tags, fused parts or gaps): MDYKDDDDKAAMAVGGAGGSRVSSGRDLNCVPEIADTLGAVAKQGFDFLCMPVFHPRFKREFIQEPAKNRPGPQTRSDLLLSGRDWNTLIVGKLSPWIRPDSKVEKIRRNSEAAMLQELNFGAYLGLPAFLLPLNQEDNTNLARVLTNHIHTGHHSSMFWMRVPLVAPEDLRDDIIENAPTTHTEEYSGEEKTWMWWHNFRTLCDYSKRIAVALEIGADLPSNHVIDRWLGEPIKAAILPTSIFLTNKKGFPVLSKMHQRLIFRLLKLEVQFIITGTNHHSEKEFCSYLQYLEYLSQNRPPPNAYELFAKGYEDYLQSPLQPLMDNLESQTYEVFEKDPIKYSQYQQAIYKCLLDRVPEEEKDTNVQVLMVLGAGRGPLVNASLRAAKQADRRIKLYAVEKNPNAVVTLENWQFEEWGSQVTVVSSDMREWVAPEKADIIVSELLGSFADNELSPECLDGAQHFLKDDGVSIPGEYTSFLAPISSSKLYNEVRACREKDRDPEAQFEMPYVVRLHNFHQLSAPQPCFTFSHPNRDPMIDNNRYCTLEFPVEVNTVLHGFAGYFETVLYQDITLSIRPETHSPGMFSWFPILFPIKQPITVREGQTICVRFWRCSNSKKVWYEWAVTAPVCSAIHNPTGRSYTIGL
T1 sequence (Q9BQA1 with tags, fused parts or gaps partner): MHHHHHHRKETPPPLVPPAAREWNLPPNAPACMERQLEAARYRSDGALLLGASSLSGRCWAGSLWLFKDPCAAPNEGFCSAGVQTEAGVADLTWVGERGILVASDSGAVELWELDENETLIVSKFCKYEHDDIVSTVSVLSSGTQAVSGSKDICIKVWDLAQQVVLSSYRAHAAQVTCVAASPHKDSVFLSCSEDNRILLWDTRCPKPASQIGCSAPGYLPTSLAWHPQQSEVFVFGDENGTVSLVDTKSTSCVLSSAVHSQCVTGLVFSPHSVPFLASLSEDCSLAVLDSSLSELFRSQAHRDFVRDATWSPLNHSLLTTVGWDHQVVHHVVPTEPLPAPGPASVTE

The assay concerns the target T1, PRMT5/MEP50 (Homo sapiens, UniProt O14744).
T1 construct: Flag-PRMT5; 6His-MEP50
Kind of assay: PRMT5 Biochemical Assay (PRMT5/MEP50 enzyme assay on peptide substrate, 3H-SAM Flashplate). The source says: General Materials. S-adenosylmethionine (SAM), S-adenosylhomocysteine (SAH), bicine, KCl, Tween20, dimethylsulfoxide (DMSO), bovine skin gelatin (BSG), and Tris(2-carboxyethyl)phosphine hydrochloride solution (TCEP) were purchased from Sigma-Aldrich at the highest level of purity possible. ^3H-SAM was purchase from American Radiolabeled Chemicals with a specific activity of 80 Ci/mmol. 384-well streptavidin Flashplates were purchased from PerkinElmer.
Substrates. Peptide representative of human histone H4 residues 1-15 was synthesized with a C-terminal linker-affinity tag motif and a C-terminal amide cap by 21st Century Biochemicals. The peptide was high high-perfomance liquid chromatography (HPLC) purified to greater than 95% purity and confirmed by liquid chromatography mass spectrometry (LC-MS). The sequence was Ac-[…][K-Biot]-amide (SEQ ID NO.:3).
Molecular Biology: Full-length human PRMT5 (NM_006109.3) transcript variant 1 clone was amplified from a fetal brain cDNA library, incorporating flanking 5′ sequence encoding a FLAG tag ([…]) (SEQ ID NO.:4) fused directly to Ala 2 of PRMT5. Full-length human MEP50 (NM_024102) clone was amplified from a human testis cDNA library incorporating a 5′ sequence encoding a 6-histidine tag (MHHHHHH) (SEQ ID NO.:5) fused directly to Arg 2 of MEP50. The amplified genes were sublconed into pENTR/D/TEV (Life Technologies) and subsequently transferred by Gateway™ attL×attR recombination to pDEST8 baculvirus expression vector (Life Technologies).
Protein Expression. Recombinant baculovirus and Baculovirus-Infected Insect Cells (BIIC) were generated according to Bac-to-Bac kit instructions (Life Technologies) and Wasilko, 2006, respectively. Protein over-expression was accomplished by infecting exponentially growing Spodoptera frugiperda (SF9) cell culture at 1.2×10^6cell/ml with a 5000 fold dilution of BIIC stock. Infections were carried out at 27° C. for 72 hours, harvested by centrifugation, and stored at −80° C. for purification.
Protein Purification. […] Flag-PRMT5/6His-MeP50 was eluted with 300 mM Imidazole in the same buffer. The purity of recovered protein was 87%. Reference: Wasilko, D. J. and S. E. Lee: “TIPS: titerless infected-cells preservation and scale-up” Bioprocess J., 5 (2006), pp. 29-32.
General Procedure for PRMT5/MEP50 Enzyme Assays on Peptide Substrates. The assays were all performed in a buffer consisting of 20 mM Bicine (pH=7.6), 1 mM TCEP, 0.005% BSG, and 0.002% Tween20, prepared on the day of use. Compounds in 100% DMSO (1 ul) were spotted into a polypropylene 384-well V-bottom plates (Greiner) using a Platemate Plus outfitted with a 384-channel head (Thermo Scientific). DMSO (1 ul) was added to Columns 11, 12, 23, 24, rows A-H for the maximum signal control and 1 ul of SAH, a known product and inhibitor of PRMT5/MEP50, was added to columns 11, 12, 23, 24, rows I-P for the minimum signal control. A cocktail (40 ul) containing the PRMT5/MEP50 enzyme and the peptide was added by Multidrop Combi (Thermo-Fisher). The compounds were allowed to incubate with PRMT5/MEP50 for 30 min at 25 degrees Celsius, then a cocktail (10 ul) containing ^3H-SAM was added to initiate the reaction (final volume=51 ul). The final concentrations of the components were as follows: PRMT5/MEP50 was 4 nM, ^3H-SAM was 75 nM, peptide was 40 nM, SAH in the minimum signal control wells was 100 uM, and the DMSO concentration was […]. The assays were stopped by the addition of non-radioactive SAM (10 ul) to a final concentration of 600 uM, which dilutes the ^3H-SAM to a level where its incorporation into the peptide substrate is no longer detectable. 50 ul of the reaction in the 384-well polypropylene plate was then transferred to a 384-well Flashplate and the biotinylated peptides were allowed to bind to the streptavidin surface for at least 1 hour before being washed three times with 0.1% Tween20 in a Biotek ELx405 plate washer. […]
For the compound `Cn1cnc2ccc(-c3cncc(NCC(O)CN4CCc5ccccc5C4)n3)cc21` (stereo not shown) [Compound 121, 1-(3,4-dihydroisoquinolin-2(1H)-yl)-3-((6-(1-methyl-1H-benzo[d]imidazol-6-yl)pyrazin-2-yl)amino)propan-2-ol], the IC50 lay in the range of 101 to 1000 nM.
For the compound `CC1Cc2ccccc2CN1CC(O)COc1cccc(-c2ccc3ncn(C)c3c2)c1` (stereo not shown) [Compound 122], the concentration for half-maximal inhibition (IC50) is 1000 to 10000 nM.
As for `OC(COc1cccc(-c2ccc(C(F)(F)F)cc2C(F)(F)F)c1)CN1CCc2ccccc2C1` (stereo not shown) [Compound 124], the figure is 101 to 1000 nM; as for `CN(C)c1ncc(-c2cccc(OCC(O)CN3CCc4ccccc4C3)c2)cn1` (stereo not shown) [Compound 125, 1-(3,4-dihydroisoquinolin-2(1H)-yl)-3-(3-(2-(dimethylamino)pyrimidin-5-yl)phenoxy)propan-2-ol], 101 to 1000 nM; as for `O=C(c1cccc(-c2cccc(OCC(O)CN3CCc4ccccc4C3)c2)c1)N1CCOCC1` (stereo not shown) [Compound 126, (3′-(3-(3,4-dihydroisoquinolin-2(1H)-yl)-2-hydroxypropoxy)-[1,1′-biphenyl]-3-yl)(morpholino)methanone], 101 to 1000 nM.
As to `OC(COc1cccc(-c2ccc(C(F)(F)F)cc2Cl)c1)CN1CCc2ccccc2C1` (stereo not shown) [Compound 127], the IC50 lay in the range of 101 to 1000 nM.
With `OC(COc1cccc(-c2cc(Cl)cc(C(F)(F)F)c2)c1)CN1CCc2ccccc2C1` (stereo not shown) [Compound 128], the IC50 lay in the range of 1000 to 10000 nM.
Under `CS(=O)(=O)Nc1ccc(-c2cccc(OCC(O)CN3CCc4ccccc4C3)c2)cc1` (stereo not shown) [Compound 129] stands 101 to 1000 nM; under `CS(=O)(=O)c1cccc(-c2cccc(OCC(O)CN3CCc4ccccc4C3)c2)c1` (stereo not shown) [Compound 130], 101 to 1000 nM.
As for `CS(=O)(=O)c1ccccc1-c1cccc(OCC(O)CN2CCc3ccccc3C2)c1` (stereo not shown) [Compound 131], the IC50 was 101 to 1000 nM.
With `OC(COc1cccc(-c2ccccc2C(F)(F)F)c1)CN1CCc2ccccc2C1` (stereo not shown) [Compound 132], the IC50 is 101 to 1000 nM.
As to `OC(COc1cccc(-c2ccc(C(F)(F)F)cc2)c1)CN1CCc2ccccc2C1` (stereo not shown) [Compound 133], the half-inhibitory concentration (IC50) is 1000 to 10000 nM.
Under `COc1ccc(Cl)cc1-c1cccc(OCC(O)CN2CCc3ccccc3C2)c1` (stereo not shown) [Compound 134, 1-((5′-chloro-2′-methoxy-[1,1′-biphenyl]-3-yl)oxy)-3-(3,4-dihydroisoquinolin-2(1H)-yl)propan-2-ol] stands 101 to 1000 nM.
For the compound `Cn1ncc2ccc(-c3cc(COCC(O)CN4CCc5ccccc5C4)on3)cc21` (stereo not shown) [Compound 136], the IC50 lay in the range of 101 to 1000 nM.
In the case of `CC(=O)c1ccc(-c2cccc(OCC(O)CN3CCc4ccccc4C3)c2)cc1` (stereo not shown) [Compound 137], the IC50 lay within 101 to 1000 nM.
Regarding `Cc1ccc(F)c(-c2cccc(OCC(O)CN3CCc4ccccc4C3)c2)c1` (stereo not shown) [Compound 138], the IC50 is 101 to 1000 nM.
For `OC(COc1cccc(-c2cccnc2F)c1)CN1CCc2ccccc2C1` (stereo not shown) [Compound 139], the IC50 lay in the range of 101 to 1000 nM.
Regarding `OC(COc1cccc(-c2cncnc2)c1)CN1CCc2ccccc2C1` (stereo not shown) [Compound 140], the IC50 was 1000 to 10000 nM.
As for `COc1cccc2c1CCN(CC(O)COc1cccc(-c3ccc4ncn(C)c4c3)c1)C2` (stereo not shown) [Compound 142], the figure is 1000 to 10000 nM; as for `CCOC(=O)CC1c2ccccc2CCN1CC(O)COc1cccc(-c2ccc3ncn(C)c3c2)c1` (stereo not shown) [Compound 144], 1000 to 10000 nM; as for `Cn1ccc2ccc(-c3cccc(OCC(O)CN4CCc5ccccc5C4)c3)cc21` (stereo not shown) [Compound 147], 101 to 1000 nM.
With `O=C1NCc2ccc(-c3cccc(OCC(O)CN4CCc5ccccc5C4)c3)cc21` (stereo not shown) [Compound 148], the IC50 was in the range of 101 to 1000 nM.
As for `CC(C)(C)OCc1cccc(-c2cccc(OCC(O)CN3CCc4ccccc4C3)c2)c1` (stereo not shown) [Compound 150], the concentration for half-maximal inhibition (IC50) is 101 to 1000 nM.
Regarding `CN(C)c1ccc(-c2cccc(OCC(O)CN3CCc4ccccc4C3)c2)cc1` (stereo not shown) [Compound 151], the half-maximal inhibitory concentration (IC50) was 101 to 1000 nM.
Under `NC(=O)c1ccc(-c2cccc(OCC(O)CN3CCc4ccccc4C3)c2)cc1` (stereo not shown) [Compound 152] stands 101 to 1000 nM.
In the case of `COc1ncc(-c2cccc(OCC(O)CN3CCc4ccccc4C3)c2)cn1` (stereo not shown) [Compound 153], the IC50 lay within 1000 to 10000 nM.
Take `OC(COc1cccc(-c2ccccc2F)c1)CN1CCc2ccccc2C1` (stereo not shown) [Compound 154]: the half-inhibitory concentration (IC50) fell in the range of 101 to 1000 nM.
Under `OC(COc1cccc(-c2cnccn2)c1)CN1CCc2ccccc2C1` (stereo not shown) [Compound 155] stands 1000 to 10000 nM.
Consider `O=C1COc2ccc(-c3cccc(OCC(O)CN4CCc5ccccc5C4)c3)cc2N1` (stereo not shown) [Compound 156, 6-(3-(3-(3,4-dihydroisoquinolin-2(1H)-yl)-2-hydroxypropoxy)phenyl)-2H-benzo[b][1,4]oxazin-3(4H)-one], for which the half-inhibitory concentration (IC50) lay in the range of 101 to 1000 nM.
On to `O=C(Nc1cccc(OCC(O)CN2CCc3ccccc3C2)c1)c1cnco1` (stereo not shown) [Compound 158], for which the half-inhibitory concentration (IC50) fell in the range of 1000 to 10000 nM.
In the case of `O=C(Nc1cccc(OCC(O)CN2CCc3ccccc3C2)c1)c1cocn1` (stereo not shown) [Compound 159], the IC50 lay within 1000 to 10000 nM.
On to `Cn1nccc1C(=O)Nc1cccc(OCC(O)CN2CCc3ccccc3C2)c1` (stereo not shown) [Compound 160], for which the IC50 fell in the range of 1000 to 10000 nM.
With `O=C(Nc1cccc(OCC(O)CN2CCc3ccccc3C2)c1)c1cncnc1` (stereo not shown) [Compound 161], the IC50 fell in the range of 1000 to 10000 nM.
As to `Cn1ccc(C(=O)Nc2cccc(OCC(O)CN3CCc4ccccc4C3)c2)n1` (stereo not shown) [Compound 162], the concentration for half-maximal inhibition (IC50) is 1000 to 10000 nM.
As for `O=C(Nc1cccc(OCC(O)CN2CCc3ccccc3C2)c1)c1cccnn1` (stereo not shown) [Compound 164], the figure is 1000 to 10000 nM; as for `OC(COc1cccc(-c2ccc3cnoc3c2)c1)CN1CCc2ccccc2C1` (stereo not shown) [Compound 166], 1000 to 10000 nM; as for `OC(COc1cccc(-c2ccccc2Oc2ccccc2)c1)CN1CCc2ccccc2C1` (stereo not shown) [Compound 167, 1-(3,4-dihydroisoquinolin-2(1H)-yl)-3-((2′-phenoxy-[1,1′-biphenyl]-3-yl)oxy)propan-2-ol], 101 to 1000 nM.
For `COc1ccc(-c2cccc(OCC(O)CN3CCc4ccccc4C3)c2)cc1Cl` (stereo not shown) [Compound 168], the half-maximal inhibitory concentration (IC50) fell in the range of 101 to 1000 nM.
Regarding `CC(=O)Nc1cccc(-c2cccc(OCC(O)CN3CCc4ccccc4C3)c2)c1` (stereo not shown) [Compound 169], the half-inhibitory concentration (IC50) was in the range of 101 to 1000 nM.
As to `OC(COc1cccc(-c2csc3ccccc23)c1)CN1CCc2ccccc2C1` (stereo not shown) [Compound 170], the IC50 was 101 to 1000 nM.
Under `NC(=O)c1cccc(-c2cccc(OCC(O)CN3CCc4ccccc4C3)c2)c1` (stereo not shown) [Compound 171] stands 101 to 1000 nM; under `N#Cc1cccc(-c2cccc(OCC(O)CN3CCc4ccccc4C3)c2)c1` (stereo not shown) [Compound 172], 101 to 1000 nM.
Take `OC(COC1CCN(c2ccccc2)C1)CN1CCc2ccccc2C1` (stereo not shown) [Compound 175]: the IC50 was in the range of 1000 to 10000 nM.
Under `COc1ccc2c(c1)CN(CC(O)COc1cccc(-c3ccc4ncn(C)c4c3)c1)CC2` (stereo not shown) [Compound 177] stands 10000 to 40000 nM; under `CCC1c2ccccc2CCN1CC(O)COc1cccc(-c2ccc3ncn(C)c3c2)c1` (stereo not shown) [Compound 179], 101 to 1000 nM; under `O=C(c1cncc(-c2cccc(OCC(O)CN3CCc4ccccc4C3)c2)c1)N1CCCC1` (stereo not shown) [Compound 181], 1000 to 10000 nM.
Under `CNC(=O)c1cncc(-c2cccc(OCC(O)CN3CCc4ccccc4C3)c2)c1` (stereo not shown) [Compound 182] stands 1000 to 10000 nM.
On to `Cn1cnc(C(=O)Nc2cccc(OCC(O)CN3CCc4ccccc4C3)c2)c1` (stereo not shown) [Compound 183], for which the IC50 was in the range of 1000 to 10000 nM.
As for `O=C(Nc1cccc(OCC(O)CN2CCc3ccccc3C2)c1)c1ccnnc1` (stereo not shown) [Compound 184], the figure is 1000 to 10000 nM.
